{"source": "paper PMC8800111", "about": "(The Journal of Biological Chemistry, 2021)", "assay_type_in_all_cases": "cell-based", "key": {"[1]": {"molecular_target": "proteins of U3A human fibrosarcoma cells (4462 proteins detected) (Homo sapiens, UniProt Q9NVR0)", "conditions": "protein KLHL11; U3A cells"}, "[2]": {"molecular_target": "proteins of U3A human fibrosarcoma cells (4462 proteins detected) (Homo sapiens, UniProt O75663)", "conditions": "protein TIPRL; soluble abundance after heat, U3A cells"}, "[3]": {"molecular_target": "proteins of U3A human fibrosarcoma cells (4462 proteins detected) (Homo sapiens, UniProt Q16775)", "conditions": "protein HAGH, U3A cells"}, "[4]": {"molecular_target": "proteins of U3A human fibrosarcoma cells (4462 proteins detected) (Homo sapiens, UniProt O60885)", "conditions": "protein BRD4; soluble abundance after heat, U3A cells"}, "[5]": {"molecular_target": "proteins of U3A human fibrosarcoma cells (4462 proteins detected) (Homo sapiens, UniProt Q9C0E2)", "conditions": "protein XPO4; soluble abundance after heat, U3A cells"}, "[6]": {"molecular_target": "proteins of U3A human fibrosarcoma cells (4462 proteins detected) (Homo sapiens, UniProt Q9NSV4)", "conditions": "protein DIAPH3, U3A cells"}, "[7]": {"molecular_target": "proteins of U3A human fibrosarcoma cells (4462 proteins detected) (Homo sapiens, UniProt Q9NTW7)", "conditions": "protein ZFP64, U3A cells"}, "[8]": {"molecular_target": "proteins of U3A human fibrosarcoma cells (4462 proteins detected) (Homo sapiens, UniProt Q9Y3C8)", "conditions": "protein UFC1; U3A cells"}, "[9]": {"molecular_target": "proteins of U3A human fibrosarcoma cells (4462 proteins detected) (Homo sapiens, UniProt Q53H96)", "sequence (Q53H96 whole entry)": "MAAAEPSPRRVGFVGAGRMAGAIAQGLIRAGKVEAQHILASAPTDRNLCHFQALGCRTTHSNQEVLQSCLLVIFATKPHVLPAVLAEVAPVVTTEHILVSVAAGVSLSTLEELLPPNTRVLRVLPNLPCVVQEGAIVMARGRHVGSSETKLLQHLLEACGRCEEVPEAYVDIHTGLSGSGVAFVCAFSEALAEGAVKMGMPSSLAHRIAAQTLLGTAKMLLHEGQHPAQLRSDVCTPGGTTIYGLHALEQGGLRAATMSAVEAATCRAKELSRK", "conditions": "protein PYCRL; U3A, 10 μM, 2 h"}, "[10]": {"molecular_target": "proteins of U3A human fibrosarcoma cells (4462 proteins detected) (Homo sapiens, UniProt P50281)", "conditions": "protein MMP14; U3A cells"}, "[11]": {"molecular_target": "proteins of U3A human fibrosarcoma cells (4462 proteins detected) (Homo sapiens, UniProt Q5SZL2)", "sequence (Q5SZL2 whole entry)": "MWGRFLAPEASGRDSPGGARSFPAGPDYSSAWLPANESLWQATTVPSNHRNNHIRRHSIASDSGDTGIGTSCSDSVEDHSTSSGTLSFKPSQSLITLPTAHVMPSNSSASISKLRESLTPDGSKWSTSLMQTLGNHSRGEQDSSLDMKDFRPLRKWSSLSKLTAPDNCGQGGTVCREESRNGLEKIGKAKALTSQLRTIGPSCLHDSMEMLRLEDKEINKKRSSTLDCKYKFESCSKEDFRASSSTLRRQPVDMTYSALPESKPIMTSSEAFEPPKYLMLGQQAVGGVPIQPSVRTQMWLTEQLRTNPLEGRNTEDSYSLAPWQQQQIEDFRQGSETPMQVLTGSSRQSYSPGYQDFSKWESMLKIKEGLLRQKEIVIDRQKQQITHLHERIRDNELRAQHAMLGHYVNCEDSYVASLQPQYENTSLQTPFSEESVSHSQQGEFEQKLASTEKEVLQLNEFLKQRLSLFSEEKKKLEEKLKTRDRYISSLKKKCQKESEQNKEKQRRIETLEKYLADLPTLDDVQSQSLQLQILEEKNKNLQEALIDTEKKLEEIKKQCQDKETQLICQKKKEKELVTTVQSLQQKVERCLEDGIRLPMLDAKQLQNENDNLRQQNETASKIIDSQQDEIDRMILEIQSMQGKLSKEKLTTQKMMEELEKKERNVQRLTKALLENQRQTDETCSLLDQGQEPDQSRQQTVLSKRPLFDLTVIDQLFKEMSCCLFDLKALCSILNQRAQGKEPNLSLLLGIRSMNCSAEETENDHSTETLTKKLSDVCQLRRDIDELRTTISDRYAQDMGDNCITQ", "conditions": "protein CEP85L; U3A, 10 μM, 2 h"}, "[12]": {"molecular_target": "proteins of U3A human fibrosarcoma cells (4462 proteins detected) (Homo sapiens, UniProt Q9HC38)", "conditions": "protein GLOD4, U3A cells"}, "[13]": {"molecular_target": "proteins of U3A human fibrosarcoma cells (4462 proteins detected) (Homo sapiens, UniProt P38919)", "conditions": "protein EIF4A3; soluble abundance after heat, U3A cells"}, "[14]": {"molecular_target": "proteins of U3A human fibrosarcoma cells (4462 proteins detected) (Homo sapiens, UniProt P11388)", "sequence (P11388 whole entry)": "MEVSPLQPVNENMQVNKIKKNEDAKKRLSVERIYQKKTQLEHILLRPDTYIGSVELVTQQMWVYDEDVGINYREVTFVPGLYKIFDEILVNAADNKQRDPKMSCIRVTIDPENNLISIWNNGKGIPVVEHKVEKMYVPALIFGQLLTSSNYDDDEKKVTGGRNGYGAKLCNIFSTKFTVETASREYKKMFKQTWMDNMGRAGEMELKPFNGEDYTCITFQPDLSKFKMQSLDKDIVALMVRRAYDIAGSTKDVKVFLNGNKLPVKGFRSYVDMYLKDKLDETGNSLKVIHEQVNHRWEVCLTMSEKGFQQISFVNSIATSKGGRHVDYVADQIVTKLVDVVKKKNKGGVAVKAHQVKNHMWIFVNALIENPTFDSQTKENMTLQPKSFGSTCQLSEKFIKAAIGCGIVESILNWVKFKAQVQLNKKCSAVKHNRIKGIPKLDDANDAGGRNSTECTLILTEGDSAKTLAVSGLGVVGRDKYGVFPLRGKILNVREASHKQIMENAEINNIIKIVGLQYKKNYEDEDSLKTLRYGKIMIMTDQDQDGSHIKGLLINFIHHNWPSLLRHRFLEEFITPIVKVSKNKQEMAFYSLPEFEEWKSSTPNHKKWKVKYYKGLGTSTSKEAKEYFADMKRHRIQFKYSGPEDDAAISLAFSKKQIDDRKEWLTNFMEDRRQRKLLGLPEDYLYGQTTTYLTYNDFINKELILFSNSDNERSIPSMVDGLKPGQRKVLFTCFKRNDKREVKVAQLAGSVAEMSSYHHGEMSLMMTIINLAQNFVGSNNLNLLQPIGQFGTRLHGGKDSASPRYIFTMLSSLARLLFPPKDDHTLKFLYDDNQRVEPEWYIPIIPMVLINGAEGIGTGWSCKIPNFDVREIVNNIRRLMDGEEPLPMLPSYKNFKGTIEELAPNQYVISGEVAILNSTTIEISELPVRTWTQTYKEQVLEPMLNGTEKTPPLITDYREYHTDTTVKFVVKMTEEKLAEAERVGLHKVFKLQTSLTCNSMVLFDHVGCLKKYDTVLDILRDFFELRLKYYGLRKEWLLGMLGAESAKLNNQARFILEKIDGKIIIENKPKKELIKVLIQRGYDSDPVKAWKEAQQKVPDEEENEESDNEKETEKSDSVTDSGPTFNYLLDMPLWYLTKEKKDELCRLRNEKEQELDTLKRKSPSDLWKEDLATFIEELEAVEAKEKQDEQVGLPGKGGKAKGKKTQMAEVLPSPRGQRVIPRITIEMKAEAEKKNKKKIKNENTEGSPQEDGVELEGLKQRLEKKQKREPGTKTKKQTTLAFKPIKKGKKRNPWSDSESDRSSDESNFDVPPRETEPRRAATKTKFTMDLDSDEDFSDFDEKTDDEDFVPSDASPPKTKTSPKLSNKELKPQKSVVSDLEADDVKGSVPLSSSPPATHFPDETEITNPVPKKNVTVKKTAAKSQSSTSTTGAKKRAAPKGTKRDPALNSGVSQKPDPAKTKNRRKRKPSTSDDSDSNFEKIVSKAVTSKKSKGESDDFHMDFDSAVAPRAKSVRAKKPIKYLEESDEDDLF", "conditions": "protein TOP2A; U3A cells"}, "[15]": {"molecular_target": "proteins of U3A human fibrosarcoma cells (4462 proteins detected) (Homo sapiens, UniProt P61201)", "conditions": "protein COPS2; U3A cells"}, "[16]": {"molecular_target": "proteins of U3A human fibrosarcoma cells (4462 proteins detected) (Homo sapiens, UniProt Q9BVS5)", "conditions": "protein TRMT61B; soluble abundance after heat, U3A cells"}, "[17]": {"molecular_target": "proteins of U3A human fibrosarcoma cells (4462 proteins detected) (Homo sapiens, UniProt Q8IYW5)", "conditions": "protein RNF168; U3A cells"}, "[18]": {"molecular_target": "proteins of U3A human fibrosarcoma cells (4462 proteins detected) (Homo sapiens, UniProt Q13131)", "sequence (Q13131 whole entry)": "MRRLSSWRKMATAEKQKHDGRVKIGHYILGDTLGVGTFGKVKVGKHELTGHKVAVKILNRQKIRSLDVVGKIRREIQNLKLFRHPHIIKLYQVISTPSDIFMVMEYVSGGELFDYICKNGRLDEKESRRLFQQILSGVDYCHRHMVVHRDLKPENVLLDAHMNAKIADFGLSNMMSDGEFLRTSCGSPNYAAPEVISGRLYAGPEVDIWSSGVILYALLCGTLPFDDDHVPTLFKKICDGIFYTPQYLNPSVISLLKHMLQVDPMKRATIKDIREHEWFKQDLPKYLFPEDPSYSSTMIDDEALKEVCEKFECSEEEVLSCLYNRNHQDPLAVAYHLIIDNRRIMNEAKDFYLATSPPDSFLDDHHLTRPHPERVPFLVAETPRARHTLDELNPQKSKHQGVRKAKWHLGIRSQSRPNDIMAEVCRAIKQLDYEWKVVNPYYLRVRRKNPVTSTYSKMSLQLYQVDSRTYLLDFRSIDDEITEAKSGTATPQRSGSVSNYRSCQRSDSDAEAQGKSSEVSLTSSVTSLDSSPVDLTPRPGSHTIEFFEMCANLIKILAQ", "conditions": "protein PRKAA1; U3A cells"}, "[19]": {"molecular_target": "proteins of U3A human fibrosarcoma cells (4462 proteins detected) (Homo sapiens, UniProt Q5HYK7)", "conditions": "protein SH3D19; U3A, 10 μM, 2 h"}, "[20]": {"molecular_target": "proteins of U3A human fibrosarcoma cells (4462 proteins detected) (Homo sapiens, UniProt Q96FF9)", "conditions": "protein CDCA5; U3A cells"}, "[21]": {"molecular_target": "proteins of U3A human fibrosarcoma cells (4462 proteins detected) (Homo sapiens, UniProt P17706)", "sequence (P17706 whole entry)": "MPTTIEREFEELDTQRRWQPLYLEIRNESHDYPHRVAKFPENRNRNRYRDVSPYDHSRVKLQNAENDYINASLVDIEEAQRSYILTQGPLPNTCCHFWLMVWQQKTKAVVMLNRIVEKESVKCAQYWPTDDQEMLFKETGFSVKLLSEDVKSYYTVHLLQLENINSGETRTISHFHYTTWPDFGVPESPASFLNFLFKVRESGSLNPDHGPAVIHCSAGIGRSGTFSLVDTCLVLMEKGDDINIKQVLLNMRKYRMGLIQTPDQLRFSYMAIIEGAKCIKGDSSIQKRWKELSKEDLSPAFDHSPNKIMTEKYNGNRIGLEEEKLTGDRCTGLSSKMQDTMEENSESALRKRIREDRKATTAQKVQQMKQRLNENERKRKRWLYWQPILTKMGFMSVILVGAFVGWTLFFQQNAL", "conditions": "protein PTPN2, U3A cells"}, "[22]": {"molecular_target": "proteins of U3A human fibrosarcoma cells (4462 proteins detected) (Homo sapiens, UniProt Q6AI12)", "conditions": "protein ANKRD40, U3A cells"}, "[23]": {"molecular_target": "proteins of U3A human fibrosarcoma cells (4462 proteins detected) (Homo sapiens, UniProt P02786)", "conditions": "protein TFRC; U3A cells"}, "[24]": {"molecular_target": "proteins of U3A human fibrosarcoma cells (4462 proteins detected) (Homo sapiens, UniProt O75976)", "conditions": "protein CPD; soluble abundance after heat, U3A cells"}, "[25]": {"molecular_target": "proteins of U3A human fibrosarcoma cells (4462 proteins detected) (Homo sapiens, UniProt P00568)", "conditions": "protein AK1, U3A cells"}, "[26]": {"molecular_target": "proteins of U3A human fibrosarcoma cells (4462 proteins detected) (Homo sapiens, UniProt Q9H0A8)", "conditions": "protein COMMD4; U3A cells"}, "[27]": {"molecular_target": "proteins of U3A human fibrosarcoma cells (4462 proteins detected) (Homo sapiens, UniProt O75116)", "sequence (O75116 whole entry)": "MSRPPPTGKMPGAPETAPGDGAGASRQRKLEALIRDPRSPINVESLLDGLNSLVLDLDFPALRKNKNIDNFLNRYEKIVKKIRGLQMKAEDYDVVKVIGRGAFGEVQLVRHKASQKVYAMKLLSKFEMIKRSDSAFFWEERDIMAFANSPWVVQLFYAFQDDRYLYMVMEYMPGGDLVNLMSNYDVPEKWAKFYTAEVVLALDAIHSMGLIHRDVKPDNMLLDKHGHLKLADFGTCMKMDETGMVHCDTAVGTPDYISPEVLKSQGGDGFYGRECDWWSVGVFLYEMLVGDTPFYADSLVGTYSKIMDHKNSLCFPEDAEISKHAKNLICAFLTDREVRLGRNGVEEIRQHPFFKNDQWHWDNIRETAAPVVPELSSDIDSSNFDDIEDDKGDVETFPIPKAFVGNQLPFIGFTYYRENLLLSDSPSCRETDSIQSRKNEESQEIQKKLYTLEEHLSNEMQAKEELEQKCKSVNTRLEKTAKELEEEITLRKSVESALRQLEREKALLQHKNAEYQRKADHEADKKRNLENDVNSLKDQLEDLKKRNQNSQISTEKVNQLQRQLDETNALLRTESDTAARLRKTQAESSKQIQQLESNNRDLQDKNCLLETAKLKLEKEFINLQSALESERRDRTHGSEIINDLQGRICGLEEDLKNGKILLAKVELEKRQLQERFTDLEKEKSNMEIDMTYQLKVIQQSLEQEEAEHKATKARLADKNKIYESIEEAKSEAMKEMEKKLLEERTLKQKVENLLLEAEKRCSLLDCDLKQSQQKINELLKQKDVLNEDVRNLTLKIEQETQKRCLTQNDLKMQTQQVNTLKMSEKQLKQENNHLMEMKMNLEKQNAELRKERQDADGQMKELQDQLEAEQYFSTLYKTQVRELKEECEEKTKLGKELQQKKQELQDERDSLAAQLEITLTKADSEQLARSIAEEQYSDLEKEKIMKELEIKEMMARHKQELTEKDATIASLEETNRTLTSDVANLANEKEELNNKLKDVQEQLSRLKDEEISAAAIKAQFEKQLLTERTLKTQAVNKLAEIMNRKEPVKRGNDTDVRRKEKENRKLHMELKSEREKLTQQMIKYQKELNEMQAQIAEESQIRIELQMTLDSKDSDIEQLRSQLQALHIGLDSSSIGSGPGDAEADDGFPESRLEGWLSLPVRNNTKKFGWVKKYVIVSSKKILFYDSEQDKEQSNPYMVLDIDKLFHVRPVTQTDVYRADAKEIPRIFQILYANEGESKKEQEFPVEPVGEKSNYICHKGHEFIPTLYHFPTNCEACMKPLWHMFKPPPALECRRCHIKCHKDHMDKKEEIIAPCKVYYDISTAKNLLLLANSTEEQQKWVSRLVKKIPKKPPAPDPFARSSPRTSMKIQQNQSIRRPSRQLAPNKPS", "conditions": "protein ROCK2; U3A cells"}, "[28]": {"molecular_target": "proteins of U3A human fibrosarcoma cells (4462 proteins detected) (Homo sapiens, UniProt Q9NP77)", "conditions": "protein SSU72, U3A cells"}, "[29]": {"molecular_target": "proteins of U3A human fibrosarcoma cells (4462 proteins detected) (Homo sapiens, UniProt Q9Y237)", "conditions": "protein PIN4, U3A cells"}, "[30]": {"molecular_target": "proteins of U3A human fibrosarcoma cells (4462 proteins detected) (Homo sapiens, UniProt Q13492)", "conditions": "protein PICALM; U3A cells"}}}
{"smiles": "CCc1nc(N)nc(N)c1-c1ccc(Cl)cc1", "note": "[pyrimethamine]", "values": [{"measurement": "Log2 (PYR/DMSO)", "setting": "[1]", "value": 0.18}, {"measurement": "Log2 (PYR/DMSO)", "setting": "[2]", "value": 0.14}, {"measurement": "Log2 (PYR/DMSO)", "setting": "[3]", "value": -0.04}, {"measurement": "Log2 (PYR/DMSO)", "setting": "[4]", "value": 0.14}, {"measurement": "Log2 (PYR/DMSO)", "setting": "[5]", "value": 0.13}, {"measurement": "Log2 (PYR/DMSO)", "setting": "[6]", "value": -0.04}, {"measurement": "Log2 (PYR/DMSO)", "setting": "[7]", "value": -0.04}, {"measurement": "Log2 (PYR/DMSO)", "setting": "[8]", "value": 0.16}, {"measurement": "Log2 (PYR/DMSO), PYCRL", "setting": "[9]", "value": -0.15}, {"measurement": "Log2 (PYR/DMSO)", "setting": "[10]", "value": 0.19}, {"measurement": "Log2 (PYR/DMSO), CEP85L", "setting": "[11]", "value": -0.24}, {"measurement": "Log2 (PYR/DMSO)", "setting": "[12]", "value": -0.04}, {"measurement": "Log2 (PYR/DMSO)", "setting": "[13]", "value": 0.15}, {"measurement": "Log2 (PYR/DMSO)", "setting": "[14]", "value": 0.18}, {"measurement": "Log2 (PYR/DMSO)", "setting": "[15]", "value": 0.21}, {"measurement": "Log2 (PYR/DMSO)", "setting": "[16]", "value": 0.13}, {"measurement": "Log2 (PYR/DMSO)", "setting": "[17]", "value": 0.17}, {"measurement": "Log2 (PYR/DMSO)", "setting": "[18]", "value": 0.19}, {"measurement": "Log2 (PYR/DMSO), SH3D19", "setting": "[19]", "value": -0.14}, {"measurement": "Log2 (PYR/DMSO)", "setting": "[20]", "value": 0.19}, {"measurement": "Log2 (PYR/DMSO)", "setting": "[21]", "value": -0.04}, {"measurement": "Log2 (PYR/DMSO)", "setting": "[22]", "value": -0.04}, {"measurement": "Log2 (PYR/DMSO)", "setting": "[23]", "value": 0.16}, {"measurement": "Log2 (PYR/DMSO)", "setting": "[24]", "value": 0.14}, {"measurement": "Log2 (PYR/DMSO)", "setting": "[25]", "value": -0.04}, {"measurement": "Log2 (PYR/DMSO)", "setting": "[26]", "value": 0.21}, {"measurement": "Log2 (PYR/DMSO)", "setting": "[27]", "value": 0.17}, {"measurement": "Log2 (PYR/DMSO)", "setting": "[28]", "value": -0.04}, {"measurement": "Log2 (PYR/DMSO)", "setting": "[29]", "value": -0.05}, {"measurement": "Log2 (PYR/DMSO)", "setting": "[30]", "value": 0.17}]}
